The source made the active and inactive calls.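 How the source made its calls: active means compounds giving half or more protection of infected cells from virus-caused growth loss, again on retest; inactive means the rest.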
Tested on: CEM cells HIV-1 protection, formazan growth assay
Assay: NCI AIDS Antiviral Assay
Details: for IC50: measured here: growth of uninfected CEM cells
How it was run: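 Steps: treat uninfected and HIV-1-infected human CEM cells at five drug levels; quantify growth by soluble formazan; retest any compound reaching 50% protection; classify actives from the retest.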

Row | Structure (SMILES) | EC50 | IC50 | outcome
1 | C1=NCCNCCN=Cc2ccccc2OCc2cccc(n2)COc2ccccc21 | > 200 µM | 10.7 µM | 
2 | NC(CO)Cc1cnc[nH]1 (stereo not drawn) | > 200 µM | > 200 µM | 
3 | COc1ccc(C(=C2C=CC=C2)c2ccc(OC)cc2)cc1 | > 200 µM | 52.5 µM | 
4 | CC(=O)CNC(=O)OC(C)(C)C |  |  | inactive
5 | Cc1c(-c2coc(-c3ccc([N+](=O)[O-])cc3)n2)c(=O)n(-c2ccccc2)n1C | > 36.3 µM | > 36.3 µM | 
6 | CCOC(=O)c1cc(Br)c(-c2onc(C)c2Br)n1C | > 200 µM | 89.1 µM | 
7 | CCOC(=O)CN1CC(C2=C(O)CN(CC(=O)OCC)C2=O)=CC1=O |  |  | inactive
8 | NC(=O)c1ccc[c]([Sb](=[O])([OH])[OH])c1 | 10.5 µM | 398 µM | 
9 | COC(=O)c1ccc(NCc2cc(O)ccc2O)cc1O | > 200 µM | 10.5 µM | 
10 | CCCNCCOc1nc(Cl)c(Cl)cc1Cl | > 200 µM | 126 µM | 
11 | CC(C)=CCC/C(C)=C/CC/C(C)=C/CC/C=C(\C)CC/C=C(\C)CCC1SC1(C)C (stereo not drawn) | > 200 µM | > 200 µM | 
12 | CCOC(=O)c1[nH]n(-c2ccccc2)c(=O)c1/C=N/C(=S)NCCc1ccc(OC)c(OC)c1 | > 200 µM | 51.3 µM | 
13 | COc1ccc(-c2onc3ccc(Br)cc23)cc1 | > 23.4 µM | > 23.4 µM | 
14 | Cn1nc(-c2ccc(Cl)cc2)[n+]([O-])c2c(=O)n(C)c(=O)nc1-2 | > 200 µM | 3.31 µM | 
15 | COC(=O)Cc1c(C2C(CC(=O)OC)c3ccccc3N2C2OC(CO)C(O)C(O)C2O)[nH]c2ccccc12 (stereo not drawn) | 112 µM | 151 µM | 
16 | O=C1c2ccccc2-c2ccc3c4ccc5c6c(ccc(c7ccc1c2c73)c64)-c1ccccc1C5=O | > 200 µM | > 200 µM | 
17 | CN1CN(c2ccccc2)C2(CCN(CCCN(C)c3ccc(F)cc3)CC2)C1=O | > 200 µM | 35.5 µM | 
18 | N#Cc1cc2c(n(C3OC(CO)C(O)C(O)C3O)c1=S)CCC2 (stereo not drawn) | > 200 µM | > 200 µM | 
19 | CNC(=O)O/N=C(C)/C(C)=N/OC(=O)NC |  |  | inactive
20 | Cc1ccc(C(=O)/C=C/c2ccc(N(C)C)cc2)cc1 | > 7.59 µM | > 7.59 µM | 
21 | O=C(Cn1c(=O)oc2ccc(C(=O)c3ccc(F)cc3)cc21)c1ccc([N+](=O)[O-])cc1 | > 200 µM | 25.1 µM | 
22 | CCOC(=O)c1c(C(F)(F)F)oc2c1ccc1nc3nonc3nc12 | > 53.7 µM | 11 µM | 
23 | CC(=NNC(=S)Nc1ccc(C)cc1)c1cccc(C(C)=NNC(=S)Nc2ccc(C)cc2)n1 | > 200 µM | 15.1 µM | 

Row | Structure (SMILES) | EC50 | IC50 | outcome
24 | O=c1n(Cl)c(=O)n(Cl)c(=O)n1Cl |  |  | inactive
25 | Cc1cc2nc(-c3ccccn3)c(-c3ccccn3)nc2cc1C | > 200 µM | > 200 µM | 
26 | Cc1ccc(CS(=O)C(Cl)(Cl)c2ccc(C)cc2)cc1 (stereo not drawn) | > 41.7 µM | 15.5 µM | 
27 | CCOC(=O)C(C(=S)SC)c1nn2c(=O)cc(C)nc2s1 (stereo not drawn) | > 200 µM | 19.1 µM | 
28 | c1cc(C[S+]2CCCC2)sc1C[S+]1CCCC1 |  |  | inactive
29 | CCOC(=O)c1c(-c2ccccc2)oc(-c2ccccc2)c1C(=O)OCC |  |  | inactive
30 | O=C1NC(=O)C2(c3ccccc3)CCN1C2=O (stereo not drawn) | > 200 µM | > 200 µM | 
31 | O=[N+]([O-])c1ccc2nc3ccscc-3c2c1 | > 15.5 µM | 2.88 µM | 
32 | Cc1cc(O)c2c(oc3cc(O)c4c(c32)COC4=O)c1C(=O)O | > 56.2 µM | 18.6 µM | 
33 | c1cc2nc(c1)CSCCCCCCCCSC2 | > 35.5 µM | > 35.5 µM | 
34 | CC(=O)SCCC1c2[nH]c3ccccc3c2CCN1O (stereo not drawn) |  |  | inactive
35 | N#Cc1ccnc(C(=O)N2CCCC2C(=O)O)c1 (stereo not drawn) | > 200 µM | > 200 µM | 
36 | C#CCN(CC#C)C(=O)C(=O)c1c[nH]c2ccc(OC)cc12 | > 200 µM | 40.7 µM | 
37 | CC(=O)O[C@@H]1[C@H](OC2CCCCC2(c2ccccc2)c2ccccc2)O[N+]([O-])=CC12CCCCC2 (stereo partly drawn) | > 200 µM | 2.69 µM | 
38 | Cc1nc2nnnn2c2c1C(=O)Nc1ccccc1N2 | > 200 µM | 83.2 µM | 
39 | CC(C)(C)OC(=O)N1N=NC2C3CC(=O)C(O3)C21 (stereo not drawn) | > 977 µM | 11 µM | 
40 | Cc1ccc(NC(=O)C2C(=O)N(c3ccc(C)cc3)C(=O)/C2=N\NC(N)=S)cc1 (stereo not drawn) | > 12.6 µM | > 12.6 µM | 
41 | CC(C)(C)OC(=O)N/N=C(/N)Cc1ccccc1 | > 200 µM | > 200 µM | 
42 | N#CC[P+](c1ccccc1)(c1ccccc1)c1ccccc1 | > 200 µM | 141 µM | 
43 | COc1ccc(N=Nc2ccc3oc(=O)c(C(=O)Nc4ccc(Cl)cc4)cc3c2)cc1 | > 200 µM | 33.1 µM | 
44 | O=C1CN(c2cccc(Cl)c2)C(=O)CN1NCNN1CC(=O)N(c2cccc(Cl)c2)CC1=O | > 200 µM | > 200 µM | 
45 | O=C(NNC(=S)Nc1ccccc1)c1nsc2ccccc12 | > 110 µM | 17.8 µM | 
